Converted amounts (≈) assume the structure as drawn.
Tests used:
Assay type in all cases: cell-based
[1] = tested on: H. pylori strain NCTC 11916; experiment: Agar plate dilution method, control antibiotic; conditions: Helicobacter pylori, NCTC11916, agar plate dilution method
[2] = tested on: H. pylori strain NCTC 11637; experiment: Disc diffusion method against H. pylori; conditions: Helicobacter pylori, NCTC11637, Disk
Experimental: (§1) Each sample was extracted using DMSO at 10 w/v % to make stock solution, further from which ten-fold serial dilution was made by DMSO, to prepare the test solution. H. pylori. strain NCTC 11637 and strain NCTC 11916 were cultured on blood agar which added 5% defibrinated horse blood to Brucella Agar (BBL) at 37° C. for 3 days, under microaerophile surroundings (N2 80%, CO2 15%, O2 5%). The strains were suspended in Brucella broth added 0.5 mg/ml of BSA fraction V (Sigma A-4503) to a concentration of 10^8 cfu/ml, to prepare inoculum organism liquid, and 0.1 ml of the liquid was smeared on BSA agar added the said BSA, after that anti-bacterial activity against H. pylori was determined by Disc method, as described below. Each test solution of 20 μl was made to absorb in a sensitivity disk (8 mm in diameter, Advantech, thin-model), placed on agar smeared with strains, cultured under microaerophile surroundings at 37° C. for 3 to 5 days. After that, growth-inhibitory zone around the disk showing more than 1 mm was regarded as positive.

[3] = tested on: H. pylori strain NCTC 11916; experiment: Disc diffusion method against H. pylori; conditions: Helicobacter pylori, NCTC11916, Disk
Experimental: as §1

[4] = tested on: H. pylori strain NCTC 11637; experiment: Agar plate dilution method, control antibiotic; conditions: Helicobacter pylori, NCTC11637, agar plate dilution method

With `CC[C@H]1OC(=O)[C@H](C)[C@@H](O[C@H]2C[C@@](C)(OC)[C@@H](O)[C@H](C)O2)[C@H](C)[C@@H](O[C@@H]2O[C@H](C)C[C@H](N(C)C)[C@H]2O)[C@](C)(O)C[C@@H](C)C(=O)[C@H](C)[C@@H](O)[C@]1(C)O` [Erythromycin] the MIC ([1]; BSA agar) was 0.03 µg/mL (≈ 0.0409 µM), the MIC ([1]; blood agar) was 0.05 µg/mL (≈ 0.0681 µM) and the MIC ([2]; BSA agar) was 3.1 µg/mL (≈ 4.22 µM). The MIC ([2]; blood agar) was 6.3 µg/mL (≈ 8.58 µM), the MIC ([3]; BSA agar) was 1.6 µg/mL (≈ 2.18 µM) and the MIC ([3]; blood agar) was 6.3 µg/mL (≈ 8.58 µM). It also gave an MIC ([4]; BSA agar) of 0.03 µg/mL (≈ 0.0409 µM) and an MIC ([4]; blood agar) of 0.05 µg/mL (≈ 0.0681 µM).

— patent US20040105869A1, “Methods for cultivation of Kabanoanatake secreting and containing active ingredients for prophylactic and therapeutic agents against microbe-related syndromes including HIV” (priority 2002, published 2004)
